Laboratory results from ChEMBL document CHEMBL1201862, “PubChem BioAssay data set” (2004).
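48-hour exposure; five concentrations; linearly interpolated endpoints. GI50 is the concentration that inhibits growth by half.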 Active and inactive are the calls of the source. No stated cut-off is given here; in the data, active = GI50 up to about 1.1 µM and inactive = higher.

What was measured:
Assay in all cases: DTP human tumour cell line panel, 48 h
KM12 = system: KM12
NCI-H23 = system: NCI-H23
OVCAR-4 = system: OVCAR-4
SK-MEL-28 = system: SK-MEL-28
OVCAR-3 = system: OVCAR-3
IGROV-1 = system: IGROV-1
HL-60 = system: HL-60
OVCAR-8 = system: OVCAR-8
SK-OV-3 = system: SK-OV-3
RPMI-8226 = system: RPMI-8226
SW-620 = system: SW-620
EKVX = system: EKVX
UACC-62 = system: UACC-62
XF498 = system: XF498
SF-295 = system: SF-295
A498 = system: A498
HCC 2998 = system: HCC 2998
MCF7 = system: MCF7
T47D = system: T47D
Hs-578T = system: Hs-578T

Measured: GI50

CON(C)C(=O)CCCO
inactive: KM12 > 100 µM | NCI-H23 > 100 µM | OVCAR-4 > 100 µM | SK-MEL-28 > 100 µM | OVCAR-3 > 100 µM | IGROV-1 > 100 µM | HL-60 > 100 µM | OVCAR-8 > 100 µM | SK-OV-3 > 10 µM | RPMI-8226 > 100 µM | SW-620 > 100 µM | EKVX > 100 µM | UACC-62 > 100 µM | XF498 > 100 µM | SF-295 > 100 µM

CC1(O)C=CC2CCC1C2O (centres undefined)
inactive: KM12 > 100 µM | NCI-H23 > 100 µM | OVCAR-4 > 100 µM | SK-MEL-28 > 100 µM | OVCAR-3 > 100 µM | IGROV-1 > 100 µM | HL-60 > 100 µM | OVCAR-8 > 100 µM | SK-OV-3 > 100 µM | RPMI-8226 28.2 µM | EKVX > 100 µM | UACC-62 > 100 µM | XF498 > 100 µM | A498 > 100 µM | SF-295 > 100 µM

CC(C)N(C(=O)C12C3C4C1C1C4(C#N)C3C12C#N)C(C)C (centres undefined)
inactive: NCI-H23 > 100 µM | OVCAR-4 > 100 µM | SK-MEL-28 > 100 µM | OVCAR-3 > 100 µM | IGROV-1 > 100 µM | OVCAR-8 > 100 µM | SK-OV-3 > 100 µM | RPMI-8226 > 100 µM | SW-620 > 100 µM | EKVX > 100 µM | HCC 2998 > 100 µM | UACC-62 > 100 µM | XF498 > 100 µM | A498 > 100 µM | SF-295 > 100 µM

C=C(C(=O)OC)N1C(=O)CC(C)C1=O (centres undefined)
inactive: MCF7 10.3 µM | KM12 20.3 µM | NCI-H23 17.9 µM | OVCAR-4 18.2 µM | SK-MEL-28 9.55 µM | OVCAR-3 8.05 µM | IGROV-1 15.9 µM | HL-60 1.37 µM | T47D 11.1 µM | OVCAR-8 15.3 µM | SK-OV-3 35.7 µM | RPMI-8226 4.91 µM | SW-620 9.35 µM | EKVX 14.7 µM | HCC 2998 16.1 µM | UACC-62 15.2 µM | A498 20.7 µM | Hs-578T 24.3 µM | SF-295 29.1 µM

c1ccc(N2N=C3N(c4ccccc4)C2N3c2ccccc2)cc1
inactive: MCF7 31.9 µM | KM12 33.7 µM | NCI-H23 37.9 µM | OVCAR-4 35.6 µM | SK-MEL-28 19.1 µM | OVCAR-3 36.6 µM | IGROV-1 31.4 µM | HL-60 38.5 µM | T47D 52.4 µM | OVCAR-8 35.9 µM | SK-OV-3 > 100 µM | RPMI-8226 15.7 µM | SW-620 33.4 µM | EKVX > 100 µM | HCC 2998 27.6 µM | UACC-62 25.6 µM | A498 33.1 µM | Hs-578T 57.7 µM | SF-295 36.1 µM

O=[N+]([O-])c1ccc(C2SCc3nc4ccccc4n32)cc1 (centres undefined)
inactive: KM12 73.3 µM | NCI-H23 26.7 µM | OVCAR-4 76.9 µM | SK-MEL-28 > 100 µM | IGROV-1 19.8 µM | HL-60 43.9 µM | OVCAR-8 > 100 µM | SK-OV-3 92.9 µM | SW-620 > 100 µM | EKVX 44.3 µM | UACC-62 32.1 µM | XF498 12.3 µM | A498 88.3 µM | SF-295 32.6 µM

C[C@@H]1CC2(C[C@@H](C)C3[C@@H](CC4(C)CCCC5C6=CC(O)(CC[C@]34C)OC6=CC(=O)OC5(C)C)O2)OC1=O (some centres undefined)
inactive: KM12 > 100 µM | NCI-H23 > 100 µM | OVCAR-4 > 100 µM | SK-MEL-28 > 100 µM | OVCAR-3 > 100 µM | IGROV-1 > 100 µM | HL-60 > 100 µM | SK-OV-3 > 100 µM | RPMI-8226 > 100 µM | SW-620 > 100 µM | HCC 2998 > 100 µM | UACC-62 > 100 µM | XF498 > 100 µM

CCCCCCCCCCCCCCCCCCNc1ccn(C2OC(COP(=O)(O)OCC3OC(n4ccc(NC(=O)CCCCCCCCCCCCCCCCC)nc4=O)C(OC(C)=O)C3OC(C)=O)C(OC(C)=O)C2OC(C)=O)c(=O)n1 (centres undefined)
inactive: MCF7 > 100 µM | KM12 > 100 µM | NCI-H23 > 100 µM | OVCAR-4 > 100 µM | SK-MEL-28 > 100 µM | OVCAR-3 > 100 µM | IGROV-1 > 100 µM | HL-60 > 100 µM | T47D > 100 µM | OVCAR-8 > 100 µM | SK-OV-3 > 100 µM | RPMI-8226 > 100 µM | SW-620 > 100 µM | EKVX > 100 µM | HCC 2998 > 100 µM | UACC-62 > 100 µM | A498 > 100 µM | Hs-578T > 100 µM | SF-295 > 100 µM
